# Reference: patent US11439659B2, “Methods and compositions to prevent and treat inflammation and allergic reactions” (priority 2018, dated 2022)
# Assays:
# DSS colitis = assay: Mouse model of DSS colitis; format: in vivo
# Protocol: Mouse model of DSS colitis. WT or Ella/hyal1 mice provided 3% DSS in their drinking water for 7 days and body weight measured every day. For HA digestion by PEGPH20, Mice were intravenously injected PEGPH20 (10 mg/kg) every 3 days 24 hour prior to start DSS water feeding. For Adipogenesis inhibition by PPARg inhibitor, Mice were intraperitonealy injected 120 mg/kg every single day 48 hour prior to start DSS water feeding. Mice were sacrificed after 5 and 7 days. Distal colon, mesenteric fat and blood were collected for RNA, Bacterial culture assay and toxin analysis.
# (§1) Reverse transcription-quantitative PCR (RTqPCR) analyses. RTqPCR was used to determine the mRNA abundance. Total cellular RNA was extracted using the PureLink RNA Mini Kit(Life Technologies Corporation, Grand Island, N.Y.) and mRNA were purified by using Dynabeads mRNA Purification Kit(Life technologies). 100 ng of mRNA was reverse transcribed to cDNA using iScript cDNA synthesis kit (BIO-RAD LABORATORIES, INC, Hercules, Calif.). Quantitative, real-time PCR was performed on the CFX96 real time system (Biorad) using predeveloped Taqman gene expression assay (Applied Biosystems). The expression of βActin gene was used as a house keeping gene to normalize data.
# (§2) Histology and immunohistochemistry (IHC). Tissue biopsies were directly embedded in OCT compound or paraffin. Paraffin embedded tissues are used for Hematoxylin/Eosin (H&E) staining, and frozen sections were fixed in 4% PFA for 20 mins or 100% Aceton prior to immunofluorescence staining. For IHC, fixed and permeabilized tissue sections were blocked with Image-iT FX reagent (invitrogen) before incubating with primary antibodies followed by appropriate 488- or 568-coupled secondary antibodies. Nuclei were counterstained with DAPI. All images were taken with an Olympus BX41 microscope (widefield) or Zeiss LSM510 confocal microscope as indicated.
# Flow cytometry analyses. Colon collected from control or DSS-treated mice was cut into small pieces then digested with 2.5 mg/mL Collagenase D and 30 ng/mL DNAse1 for 2 hours at 37° C. then filtered through a 30 μm filter to generate single cell suspension for FACS analyses. Cells were then stained with zombie violet viability dye (BioLegend, 423114), blocked with anti-mouse CD16/32 (eBioscience, 14016185), followed by staining with antibody cocktails for preadipocytes or immune cells. The antibody cocktail for preadipocytes includes AF488-SMA (eBioscience, 53976082), PECy7-CD45 (BioLegend, 147704), PerCy5.5-CD31 (BioLegend, 102522), PE-Thyl (BioLegend, 105308), APC-PDGFRa (eBioscience, 17140181), BV605-SCA1 (BioLegend, 108133) and AF700-CD24 (BioLegend, 108136). The antibody cocktail for immune cells includes PECy7-CD11b (BioLegend, 101216), FITC-Ly6G (eBioscience, 11593182), PE-F4/80 (eBioscience,12480182), APC-CD11C (BioLegend, 117310), AF700-MHCII (eBioscience, 56532182) and APC-Cy7-CD3 (BioLegend, 100222). FACS analyses for surface expression of preadipocyte or immune cell markers were performed by the BD FACSCanto RUO machine and analyzed by FlowJo V10 software. Dead cells stained positive with zombie violet dye were excluded from the analyses.
# Serum Endotoxin analyses. Mouse serum was separated from mouse whole blood using serum separator tubes (Becton, Dickinson and Company). Mouse serum Endotoxin levels were quantified by ToxinSensor Chromogenic LAL Endotoxin Assay Kit (GenScript).
# Hyaluronan (HA) analysis. Glucosaminoglycan (GAG) including HA were extracted from 3T3L1 supernatant and Murine skin and colon. Samples were homogenized and treated overnight with protease (0.16 mg/ml; Sigma-Aldrich) to degrade protein, followed by purification by anion exchange chromatography using DEAE sephacel (Amersham Biosciences). Columns were washed with a low-salt buffer (0.15 M NaCl in 20 mM sodium acetate; pH 6.0) and eluted with 1 M NaCl. Glycans were desalted by PD10 (GE Healthcare). HA concentration were measured ELISA Duo Set (R&D Systems). […]
# [1] = tested on: mouse preadipocytes (3T3L1); assay: In vitro adipocyte differentiation of 3T3L1 preadipocytes; format: cell-based
# Protocol: Preadipocyte culture. The preadipocyte cell line 3T3-L1 was purchased from ATCC (CL-173) lot 59239597. 3T3-L1 cells were grown in preadipocyte proliferation medium stock (Cell applications, San Diego, Calif.), and P4˜P7 cells were used for in vitro differentiation. To induce differentiation, two days post-confluent 3T3-L1 cells were switched to adipocyte differentiation medium containing insulin, dexamethasone, and IBMX. (Cell applications, San Diego, Calif.), and medium was changed to fresh medium at day 2 and 4. To generate differentiated adipocytes for comparison studies between 3T3-L1 preadipocytes and adipocytes, 3T3-L1 cells were differentiated for 3 days followed by two days culture in Preadipocyte growth media. (Cell applications, San Diego, Calif.) before RNA or protein extraction.
# as §1
# Hyaluronan (HA) analysis. Glucosaminoglycan (GAG) including HA were extracted from 3T3L1 supernatant and Murine skin and colon. Samples were homogenized and treated overnight with protease (0.16 mg/ml; Sigma-Aldrich) to degrade protein, followed by purification by anion exchange chromatography using DEAE sephacel (Amersham Biosciences). Columns were washed with a low-salt buffer (0.15 M NaCl in 20 mM sodium acetate; pH 6.0) and eluted with 1 M NaCl. Glycans were desalted by PD10 (GE Healthcare). HA concentration were measured ELISA Duo Set (R&D Systems). The size distribution of HA was analyzed by agarose gel electrophoresis 41. The HA sample was mixed with TAE buffer containing 2 M sucrose and electrophoresed at 2 V/cm for 10 hours at room temperature. The gel was stained overnight under light-protective cover at room temperature in a solution containing 0.005% Stains-All in 50% ethanol, and destained in water. Hyalose ladders (Hyalose) were used for standards.
# [2] = tested on: S. aureus strain USA300/MRSA skin infection; assay: Mouse model of S. aureus skin infection; format: in vivo
# Protocol: Mouse model of S. aureus skin infection. Staphylococcus aureus strain USA300/MRSA was used for infection. Briefly, the backs of sex-matched and age-matched adult wildtype or Ella/Hyal1 mice were shaved and hair removed by chemical depilation (Nair) then injected subcutaneously with 100 μl of a mid-logarithmic growth phase of S. aureus (2×10^6 CFU of bacteria) in PBS. Mice were sacrificed after day 3 and 8 mm skin punch biopsy comprising the center of the injection site was harvested. Infected skin surrounding the infection center (6˜8 mm) avoid of center abscess was carefully dissected out for RNA extraction or CFU determination. Skin biopsies were homogenized in 1 ml Trizol (for RNA) or PBS (for CFU counting) with 2 mm zirconia beads in a mini-bead beater 16 (Biospect, Bartlesville, Okla.). To count CFU, homogenized skin samples were serially diluted, plated onto Tryptic Soy Agar, and enumerated after 18 hours to quantify the CFU per gram of tissue. For some experiments, PEGPH20(10 mg/kg) was injected intravenously starting from 1 day prior to infection, and vehicle (10 mmol/L histidine, 130 mmol/L NaCl at pH 6.5) was used as control.
# as §1, §2
# [3] = mouse, in vivo
# [4] = BADGE compared with hyaluronidase
# [5] = 3T3L1 differentiation, 20 ug/ml PEGPH20
Compound,magnitude of inhibition of inflammation of the colon (DSS colitis; [4]),"preventing DSS induced colon injury (colon length, histology, microbial translocation) (DSS colitis; [4])","expression of TNFα in colon (DSS colitis; DSS colitis, BADGE 120 mg/kg intraperitoneally every day from 48 hour prior to DSS)",Pref-1 expression in the colon (DSS colitis; PPARg inhibitor),"lipid droplets within cells (Bodipy) ([1]; 3T3L1, day 2 of differentiation, 20 ug/ml PEGPH20)","expression of Zfp521 mRNA [1, 5]","expression of adiponectin (Adipoq) mRNA [1, 5]","expression of antimicrobial peptide cathelicidin (Camp) [1, 5]",expression of zfp423 mRNA ([1]; adipocyte differentiation with added hyaluronidase),adipogenesis / adipocyte differentiation in vitro ([1]; cultured preadipocytes),lesion size ([2]; S. aureus skin infection),expression of Camp ([2]; infected skin),expression of IL-6 ([2]; infected skin),"gross inflammatory response of the skin to infection ([2]; mouse, in vivo)","decrease in body weight (DSS colitis; 3% DSS, by day 5)","expression of tumor necrosis factor alpha (TNFα) in colon (DSS colitis; DSS colitis, hyaluronidase delivery, vs control colitis group)","gross inflammatory response of the colon to DSS (DSS colitis; mouse, in vivo)",effect on health or behavior of mice [3]
"CC(C)(c1ccc(OCC2CO2)cc1)c1ccc(OCC2CO2)cc1 (stereo not drawn) [BADGE, Bisphenol A diglycidyl ether]",less,lesser effect than hyaluronidase,inhibited expression,inhibited,–,–,–,–,–,–,–,–,–,–,–,–,–,–
hyaluronidase,–,–,–,–,decreased lipid droplets,decreased mRNA,decreased mRNA,decreased,decreased mRNA,inhibited adipocyte differentiation,decreased lesion size,decreased,decreased expression,significant decrease,lesser decrease in body weight,decreased expression,significant decrease,No effect
